Like-named read-outs stand apart in the source and are kept apart here. One block for each compound: values may come before it.
What was measured:
[1] = rcm bond
[2] = target: T1, human TLR8 (Homo sapiens, UniProt Q9NR97); experiment: HEK293 TLR8-NFκB-luc cellular reporter assay; assay type: cell-based; settings: lowest effective concentration; greater than the highest tested concentration
T1 construct: expressed in transfected cells; host or cells: HEK293
T1 sequence (Q9NR97 27-1041): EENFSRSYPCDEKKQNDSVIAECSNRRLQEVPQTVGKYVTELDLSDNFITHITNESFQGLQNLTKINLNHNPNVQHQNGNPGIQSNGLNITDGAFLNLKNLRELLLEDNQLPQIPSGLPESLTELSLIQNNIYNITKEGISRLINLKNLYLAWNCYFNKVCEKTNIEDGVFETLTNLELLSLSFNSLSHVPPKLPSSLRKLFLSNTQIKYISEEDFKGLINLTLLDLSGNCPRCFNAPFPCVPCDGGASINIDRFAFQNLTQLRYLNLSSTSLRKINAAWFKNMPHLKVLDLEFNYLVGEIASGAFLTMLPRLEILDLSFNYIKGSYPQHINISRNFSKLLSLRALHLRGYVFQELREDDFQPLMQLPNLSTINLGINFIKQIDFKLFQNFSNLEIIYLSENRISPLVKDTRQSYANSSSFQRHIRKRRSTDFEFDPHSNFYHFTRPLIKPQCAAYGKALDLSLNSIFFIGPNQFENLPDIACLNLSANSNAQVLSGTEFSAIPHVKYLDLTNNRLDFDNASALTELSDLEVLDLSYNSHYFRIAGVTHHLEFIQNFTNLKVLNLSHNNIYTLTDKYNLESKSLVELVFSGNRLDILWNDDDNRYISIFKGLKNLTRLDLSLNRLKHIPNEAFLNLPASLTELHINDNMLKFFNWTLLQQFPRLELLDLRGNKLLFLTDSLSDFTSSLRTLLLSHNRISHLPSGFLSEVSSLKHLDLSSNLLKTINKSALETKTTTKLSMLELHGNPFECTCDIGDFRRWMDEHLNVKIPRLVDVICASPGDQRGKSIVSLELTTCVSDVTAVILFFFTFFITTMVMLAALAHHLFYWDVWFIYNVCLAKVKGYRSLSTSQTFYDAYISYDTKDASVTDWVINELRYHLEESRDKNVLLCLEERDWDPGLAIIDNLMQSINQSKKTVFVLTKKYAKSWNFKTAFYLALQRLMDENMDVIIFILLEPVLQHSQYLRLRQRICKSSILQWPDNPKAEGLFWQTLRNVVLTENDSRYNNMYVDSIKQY
Protocol: (§1) The ability of compounds to activate human TLR7 and TLR8 was assessed in a cellular reporter assay using HEK293 cells transiently transfected with a TLR7 or TLR8 expression vector and NFκB-luc reporter construct. Briefly, HEK293 cells were grown in culture medium (DMEM supplemented with 10% FCS and 2 mM Glutamine). For transfection of cells in 15 cm dishes, cells were detached with Trypsin-EDTA, transfected with a mix of CMV-TLR7 or TLR8 plasmid (1,700 ng), NFκB-luc plasmid (850 ng) and a transfection reagent and incubated 48 hours at 37° C. in a humidified 5% CO2 atmosphere. Transfected cells were then washed in PBS, detached with Trypsin-EDTA, and resuspended in medium to a density of 1.25×10^5 cells/mL. Forty microliters of cells were then dispensed into each well in 384-well plates, where 200 nL of compound in 100% DMSO was already present. Following 6 hours incubation at 37° C., 5% CO2, the luciferase activity was determined by adding 15 μl of Steady Lite Plus substrate (Perkin Elmer) to each well and readout performed on a ViewLux ultraHTS microplate imager (Perkin Elmer). Dose response curves were generated from measurements performed in quadruplicates. Lowest effective concentrations (LEC) values, defined as the concentration that induces an effect which is at least two fold above the standard deviation of the assay, were determined for each compound.

[3] = system: HEK293 NFκB-luc; experiment: Counterscreen: HEK293 cells transfected with NFκB-luc reporter construct alone; assay type: cell-based; settings: lowest effective concentration; greater than the highest tested concentration
Protocol: In parallel, a similar dilution series of compound was used (200 nL of compound in 100% DMSO) with 40 μL per well of cells transfected with NFκB-luc reporter construct alone (1.25×10^5 cells/mL). Six hours after incubation at 37° C., 5% CO2, the luciferase activity was determined by adding 15 μl of Steady Lite Plus substrate (Perkin Elmer) to each well and readout performed on a ViewLux ultraHTS microplate imager (Perkin Elmer). Counterscreen data is reported as LEC.

[4] = system: interferon production in human PBMC; experiment: Interferon production in human PBMC, read out on HEK-ISRE-luc reporter cells; assay type: cell-based; settings: Homo sapiens, PBMC, 24 h, lowest effective concentration, PBMC incubated overnight with compound, supernatant transferred to HEK-ISRE-luc cells, read-out: PBMC HEK-ISRE-luc (LEC; μM)
Protocol: Activation of human TLR7 results in robust production of interferon by plasmacytoid dendritic cells present in human blood. The potential of compounds to induce interferon was evaluated by determination of interferon in the conditioned media from peripheral blood mononuclear cells (PBMC). The presence of interferon in the samples was determined, using an interferon reporter cell line stably expressing an interferon-stimulated responsive elements (ISRE)-luc reporter construct. The ISRE element with sequence TAGTTTCACTTTCCC (SEQ ID NO: 1) is highly responsive to the STAT1-STAT2-IRF9 transcription factor, which becomes activated upon binding of IFN-I to the IFN receptor. Briefly, PBMCs were prepared from buffy coats of at least two donors using a standard Ficoll centrifugation protocol. Isolated PBMCs were resuspended in RPMI medium supplemented with 10% human AB serum and 2×10^5 cells/well were dispensed into 384-well plates containing compounds (70 μL total volume). After overnight incubation of the PBMCs with the compounds, 10 μL of supernatant was transferred to 384-well plates containing 5×10^3 HEK-ISRE-luc cells/well in 30 μL (plated the day before). Following 24 hours of incubation, activation of the ISRE elements was measured by assaying luciferase activity using 40 μL/well Steady Lite Plus substrate (Perkin Elmer) and measured with ViewLux ultraHTS microplate imager (Perkin Elmer). The stimulating activity of each compound on the HEK-ISRE-luc cells was reported as LEC. The LEC in turn indicates the degree of ISRE activation on transfer of a defined amount of PBMC culture medium. Recombinant interferon alfa-2a (Roferon-A) was used as a standard control compound.

[5] = target: T2, human TLR7 (Homo sapiens, UniProt Q9NYK1); experiment: HEK293 TLR7-NFκB-luc cellular reporter assay; assay type: cell-based; settings: lowest effective concentration; HEK293 transiently transfected with TLR7 and NFκB-luc; 6 hours incubation
T2 construct: expressed in transfected cells; host or cells: HEK293
T2 sequence (Q9NYK1 27-1049): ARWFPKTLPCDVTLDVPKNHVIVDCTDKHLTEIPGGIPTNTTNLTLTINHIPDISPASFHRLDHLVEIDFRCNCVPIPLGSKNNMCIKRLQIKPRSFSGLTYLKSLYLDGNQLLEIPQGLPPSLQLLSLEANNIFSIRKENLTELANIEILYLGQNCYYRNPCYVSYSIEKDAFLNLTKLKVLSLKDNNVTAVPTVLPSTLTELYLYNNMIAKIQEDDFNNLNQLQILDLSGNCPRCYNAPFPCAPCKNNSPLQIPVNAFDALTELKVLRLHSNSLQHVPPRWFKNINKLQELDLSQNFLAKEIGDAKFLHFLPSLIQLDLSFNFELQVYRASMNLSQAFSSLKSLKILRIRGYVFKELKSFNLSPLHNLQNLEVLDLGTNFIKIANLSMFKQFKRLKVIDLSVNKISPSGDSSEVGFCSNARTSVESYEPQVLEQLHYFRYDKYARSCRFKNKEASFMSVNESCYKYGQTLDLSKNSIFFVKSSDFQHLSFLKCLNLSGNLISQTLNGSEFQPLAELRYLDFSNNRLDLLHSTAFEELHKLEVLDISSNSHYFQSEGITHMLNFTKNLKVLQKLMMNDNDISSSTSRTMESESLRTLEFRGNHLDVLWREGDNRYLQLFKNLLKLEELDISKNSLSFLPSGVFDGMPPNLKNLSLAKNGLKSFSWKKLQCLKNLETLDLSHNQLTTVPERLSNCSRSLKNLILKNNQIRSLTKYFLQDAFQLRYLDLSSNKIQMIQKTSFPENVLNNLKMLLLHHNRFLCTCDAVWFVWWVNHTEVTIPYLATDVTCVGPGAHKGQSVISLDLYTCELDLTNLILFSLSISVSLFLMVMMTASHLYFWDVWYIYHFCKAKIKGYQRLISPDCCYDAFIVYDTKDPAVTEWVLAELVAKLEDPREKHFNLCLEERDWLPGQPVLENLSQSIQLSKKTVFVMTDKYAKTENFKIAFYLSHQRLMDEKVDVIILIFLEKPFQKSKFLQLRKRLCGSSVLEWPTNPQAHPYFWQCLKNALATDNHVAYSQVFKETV
Protocol: as §1

SMILES: CCOC(=O)N1CCc2ccc(OC)c(c2)OCC=CCOc2cc1c([N+](=O)[O-])c(N)n2
ring closure, yield of all isomers ([1]; from C=CCOc1cc(N(CCc2ccc(OC)c(OCC=C)c2)C(=O)OCC)c([N+](=O)[O-])c(N)n1, Grubbs-Hoveyda catalyst 2nd generation (with chlorodicyclohexylborane), 1,2-dichloroethane, 4.24 mM, 120.0 °C, 23.0 h): 25%

SMILES: CCOC(=O)N1Cc2cccc(c2)N(C(=O)OC(C)(C)C)CC=CCCOc2cc1c([N+](=O)[O-])c(N)n2
ring closure, yield of all isomers ([1]; from C=CCCOc1cc(N(Cc2cccc(N(CC=C)C(=O)OC(C)(C)C)c2)C(=O)OCC)c([N+](=O)[O-])c(N)n1, Grubbs catalyst 2nd generation, dichloromethane, 6.93 mM, 25.0 °C, 24.0 h): 67%

SMILES: CCOC(=O)N1Cc2cccc(c2)N(C(=O)OC(C)(C)C)CC=CCOc2cc1c([N+](=O)[O-])c(N)n2
ring closure, yield of all isomers ([1]; from C=CCOc1cc(N(Cc2cccc(N(CC=C)C(=O)OC(C)(C)C)c2)C(=O)OCC)c([N+](=O)[O-])c(N)n1, Grubbs-Hoveyda catalyst 2nd generation (with chlorodicyclohexylborane), 1,2-dichloroethane, 4.1 mM, 120.0 °C, 16.0 h): 40%

SMILES: CCOC(=O)N1Cc2cccc(c2)OCC=CCCOc2cc1c([N+](=O)[O-])c(N)n2
ring closure, yield of all isomers ([1]; from C=CCCOc1cc(N(Cc2cccc(OCC=C)c2)C(=O)OCC)c([N+](=O)[O-])c(N)n1, Grubbs 2nd generation, CH2Cl2, 5.22 mM, 25.0 °C, 20.0 h): 15%

SMILES: CCOC(=O)N1Cc2cccc(c2)OCC=CCOc2cc1c([N+](=O)[O-])c(N)n2
ring closure, yield of all isomers ([1]; from C=CCOc1cccc(CN(C(=O)OCC)c2cc(OCC=C)nc(N)c2[N+](=O)[O-])c1, Hoveyda-Grubbs 2nd generation (with chlorodicyclohexylborane), 1,2-dichloroethane, 3.47 mM, 120.0 °C, 37.0 h): 19%

SMILES: CCOC(=O)N1Cc2cccc(c2)OCCC=CCOc2cc1c([N+](=O)[O-])c(N)n2
ring closure, yield of all isomers ([1]; from C=CCCOc1cccc(CN(C(=O)OCC)c2cc(OCC=C)nc(N)c2[N+](=O)[O-])c1, Grubbs-Hoveyda catalyst 2nd generation (with chlorodicyclohexylborane), 1,2-dichloroethane, 4.18 mM, 120.0 °C, 32.0 h): 36%

SMILES: CCOC(=O)N1Cc2ncccc2OCC=CCCOc2cc1c([N+](=O)[O-])c(N)n2
ring closure, yield of all isomers ([1]; from C=CCCOc1cc(N(Cc2ncccc2OCC=C)C(=O)OCC)c([N+](=O)[O-])c(N)n1, Hoveyda-Grubbs 2nd generation (with chlorodicyclohexylborane), 1,2-dichloroethane, 3.6 mM, 120.0 °C, 3.0 h): 22%

LEC on HEK293 TLR8-NFκB-luc [2]: > 10 µM
HEK293 TLR7-NFκB-luc (LEC; μM) [5]: 2.38 µM
SMILES: Nc1nc2cc3c1nc(O)n3Cc1cccc(c1)CCCCCO2 [Compound 4]
LEC on HEK293 NFκB-luc (counterscreen) [3]: > 10 µM
minimal effective concentration [4]: 2.56 µM

Reference: patent publication US11702426B2, “Macrocyclic deaza-purinones for the treatment of viral infections” (JANSSEN SCIENCES IRELAND UNLIMITED COMPANY, priority 2013, dated 2023)
